Measurements published in ChEMBL document CHEMBL1201862, “PubChem BioAssay data set” (2004).
Activity calls are given as the source filed them.

Experiments:
HEK293 [1] = experiment: optical interference in Abeta FP readout, dose response, artefact control for IDE activator project, biochemical, fluorescence polarization (AID 588442); assay type: functional, cell-based; conditions: Homo sapiens
HEK293 [2] = experiment: HEK cell cytotoxicity by LDH release, dose response, cytotoxicity control for IDE activator project, fluorescence, HEK cells (AID 588440); assay type: functional, cell-based; conditions: Homo sapiens;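 further: cytotoxicity by LDH release measuring loss of membrane integrity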
Insulin-degrading enzyme [3] = molecular target: T1, Insulin-degrading enzyme (Homo sapiens, UniProt P14735); experiment: activators of recombinant IDE enzyme, dose response, counter-screen for IDE activator project, biochemical, fluorescence polarization (AID 588681)
T1 sequence (P14735 whole entry): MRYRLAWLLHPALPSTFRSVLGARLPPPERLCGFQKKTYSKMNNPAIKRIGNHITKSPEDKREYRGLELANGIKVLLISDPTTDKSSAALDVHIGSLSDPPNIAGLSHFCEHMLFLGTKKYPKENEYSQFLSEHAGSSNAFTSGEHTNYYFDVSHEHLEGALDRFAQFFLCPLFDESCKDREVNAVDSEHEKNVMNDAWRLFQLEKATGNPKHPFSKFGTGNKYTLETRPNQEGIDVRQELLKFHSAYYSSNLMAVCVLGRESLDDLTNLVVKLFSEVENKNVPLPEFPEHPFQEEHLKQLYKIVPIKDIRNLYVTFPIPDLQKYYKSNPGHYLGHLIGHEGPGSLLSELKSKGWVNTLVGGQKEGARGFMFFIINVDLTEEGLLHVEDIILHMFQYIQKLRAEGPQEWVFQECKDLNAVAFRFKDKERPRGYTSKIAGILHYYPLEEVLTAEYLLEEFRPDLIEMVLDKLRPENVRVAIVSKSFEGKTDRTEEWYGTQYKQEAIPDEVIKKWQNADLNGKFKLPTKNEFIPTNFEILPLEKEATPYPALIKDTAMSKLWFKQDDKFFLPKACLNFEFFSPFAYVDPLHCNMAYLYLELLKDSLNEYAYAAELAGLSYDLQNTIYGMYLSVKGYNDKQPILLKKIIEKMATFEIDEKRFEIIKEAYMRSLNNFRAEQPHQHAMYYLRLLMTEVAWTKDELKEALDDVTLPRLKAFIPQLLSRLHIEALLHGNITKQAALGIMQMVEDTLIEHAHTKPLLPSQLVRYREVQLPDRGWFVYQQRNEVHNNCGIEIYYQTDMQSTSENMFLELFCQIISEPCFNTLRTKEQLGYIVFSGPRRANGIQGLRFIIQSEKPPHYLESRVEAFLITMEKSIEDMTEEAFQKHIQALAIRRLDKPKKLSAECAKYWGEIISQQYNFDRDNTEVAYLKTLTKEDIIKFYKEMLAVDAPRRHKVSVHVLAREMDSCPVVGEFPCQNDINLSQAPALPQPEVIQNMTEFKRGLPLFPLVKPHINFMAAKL

Coagulation factor XII = molecular target: T2, Coagulation factor XII (Homo sapiens, UniProt P00748); assay type: functional;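 further: activated factor XIIa alpha cleaving a fluorogenic AMC peptide substrate; inhibitor potency from loss of enzyme activity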
T2 sequence (P00748 whole entry): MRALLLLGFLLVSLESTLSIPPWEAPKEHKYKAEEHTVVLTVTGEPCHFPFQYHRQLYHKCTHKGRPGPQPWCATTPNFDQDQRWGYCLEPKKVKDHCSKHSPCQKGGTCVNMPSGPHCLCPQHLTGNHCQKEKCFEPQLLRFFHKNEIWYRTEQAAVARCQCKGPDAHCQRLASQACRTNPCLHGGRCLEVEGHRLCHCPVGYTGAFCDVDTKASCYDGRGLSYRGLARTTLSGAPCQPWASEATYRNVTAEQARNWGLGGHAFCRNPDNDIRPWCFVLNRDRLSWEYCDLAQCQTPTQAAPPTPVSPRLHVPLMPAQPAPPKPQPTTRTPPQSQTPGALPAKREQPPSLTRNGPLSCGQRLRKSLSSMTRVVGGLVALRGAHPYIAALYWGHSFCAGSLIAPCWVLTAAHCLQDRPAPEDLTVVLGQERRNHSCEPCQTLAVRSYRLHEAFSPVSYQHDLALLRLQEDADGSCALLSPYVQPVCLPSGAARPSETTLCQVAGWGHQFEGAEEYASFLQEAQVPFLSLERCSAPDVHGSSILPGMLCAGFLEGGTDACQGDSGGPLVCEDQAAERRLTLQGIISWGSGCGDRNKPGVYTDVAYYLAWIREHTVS

Insulin-degrading enzyme [4] = molecular target: T1, Insulin-degrading enzyme; experiment: activators of endogenous IDE in HEK cells, dose response, cell-based, fluorescence polarization (AID 588439); assay type: functional
[5] = molecular target: Voltage-gated inwardly rectifying potassium channel KCNH2 (Homo sapiens, UniProt Q12809); experiment: hERG protection from proarrhythmic block, potency, dose response, cell-based, thallium flux (AID 2121); assay type: ADME
Chain of Voltage-gated inwardly rectifying potassium channel KCNH2 (Q12809 whole entry, the tested form may be a part): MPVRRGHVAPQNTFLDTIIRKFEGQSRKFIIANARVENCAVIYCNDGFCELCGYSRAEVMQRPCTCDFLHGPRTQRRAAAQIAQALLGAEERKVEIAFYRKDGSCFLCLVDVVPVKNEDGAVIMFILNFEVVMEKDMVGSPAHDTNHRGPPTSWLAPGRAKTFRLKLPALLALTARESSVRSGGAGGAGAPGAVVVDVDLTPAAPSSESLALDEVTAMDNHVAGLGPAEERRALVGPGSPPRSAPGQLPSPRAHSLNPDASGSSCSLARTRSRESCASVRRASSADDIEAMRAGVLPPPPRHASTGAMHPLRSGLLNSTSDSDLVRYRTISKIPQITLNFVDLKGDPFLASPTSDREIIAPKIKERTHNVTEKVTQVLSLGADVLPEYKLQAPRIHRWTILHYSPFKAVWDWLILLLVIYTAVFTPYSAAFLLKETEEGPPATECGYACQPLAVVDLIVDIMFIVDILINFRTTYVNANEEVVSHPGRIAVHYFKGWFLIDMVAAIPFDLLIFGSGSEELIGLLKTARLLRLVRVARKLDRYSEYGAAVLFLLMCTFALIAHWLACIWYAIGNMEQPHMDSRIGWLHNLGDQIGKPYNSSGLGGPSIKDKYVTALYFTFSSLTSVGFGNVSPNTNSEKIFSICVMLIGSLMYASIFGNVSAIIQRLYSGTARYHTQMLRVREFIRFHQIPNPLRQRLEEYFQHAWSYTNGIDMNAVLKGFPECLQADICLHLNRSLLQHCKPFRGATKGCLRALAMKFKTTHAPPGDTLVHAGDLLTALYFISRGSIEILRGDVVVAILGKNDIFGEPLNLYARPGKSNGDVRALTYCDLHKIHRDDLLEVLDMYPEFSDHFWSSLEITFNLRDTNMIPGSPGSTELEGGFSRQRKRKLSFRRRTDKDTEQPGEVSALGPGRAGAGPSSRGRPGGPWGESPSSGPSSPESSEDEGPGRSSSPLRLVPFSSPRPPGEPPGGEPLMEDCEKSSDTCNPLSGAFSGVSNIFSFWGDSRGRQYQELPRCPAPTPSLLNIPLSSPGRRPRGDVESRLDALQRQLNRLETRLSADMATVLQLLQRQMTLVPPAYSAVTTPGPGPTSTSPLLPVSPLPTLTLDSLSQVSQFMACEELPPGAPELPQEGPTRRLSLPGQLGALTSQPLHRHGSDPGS

[6] = molecular target: T3, Oxysterols receptor LXR-beta (Homo sapiens, UniProt P55055); experiment: LXR agonists, Gal4 luciferase reporter, dose response, counter-screen for ssDAF-12 agonist project, cell-based, luminescence, HEK293, S. stercoralis campaign (AID 720737); assay type: functional; conditions: read-out: IC50 (the source's name)
T3 sequence (P55055 whole entry): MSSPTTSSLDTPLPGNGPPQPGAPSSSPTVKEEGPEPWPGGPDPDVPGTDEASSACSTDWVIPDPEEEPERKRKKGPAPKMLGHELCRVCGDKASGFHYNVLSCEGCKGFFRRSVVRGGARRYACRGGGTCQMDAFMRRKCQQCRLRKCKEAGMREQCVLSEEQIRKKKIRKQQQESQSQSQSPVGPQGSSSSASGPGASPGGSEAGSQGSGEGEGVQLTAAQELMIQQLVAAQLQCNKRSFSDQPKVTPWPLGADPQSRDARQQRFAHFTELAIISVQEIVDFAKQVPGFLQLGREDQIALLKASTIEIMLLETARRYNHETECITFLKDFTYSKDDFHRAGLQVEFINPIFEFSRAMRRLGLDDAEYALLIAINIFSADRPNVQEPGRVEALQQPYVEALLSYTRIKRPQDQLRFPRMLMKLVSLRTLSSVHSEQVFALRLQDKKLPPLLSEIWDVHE

[7] = molecular target: 26S proteasome non-ATPase regulatory subunit 14 (Homo sapiens, UniProt O00487); experiment: inhibition of proteasome subunit RPN11 – biochemical, fluorescence polarization, uHTS hits, confirmation (AID 602368); assay type: functional
Chain of 26S proteasome non-ATPase regulatory subunit 14 (O00487 whole entry): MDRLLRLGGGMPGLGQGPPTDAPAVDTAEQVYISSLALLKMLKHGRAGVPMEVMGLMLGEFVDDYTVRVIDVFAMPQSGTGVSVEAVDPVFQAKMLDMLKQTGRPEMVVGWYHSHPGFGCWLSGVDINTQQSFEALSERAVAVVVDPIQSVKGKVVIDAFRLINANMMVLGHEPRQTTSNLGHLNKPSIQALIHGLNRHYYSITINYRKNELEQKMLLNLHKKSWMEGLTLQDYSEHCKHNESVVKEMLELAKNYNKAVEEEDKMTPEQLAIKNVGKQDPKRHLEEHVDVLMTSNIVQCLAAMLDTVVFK

[8] = molecular target: 72 kDa type IV collagenase (Homo sapiens, UniProt P08253); experiment: Dose Response validation of uHTS RPN11 inhibitor hits using a MMP-2 Fluorescence assay.; assay type: functional
Chain of 72 kDa type IV collagenase (P08253 whole entry): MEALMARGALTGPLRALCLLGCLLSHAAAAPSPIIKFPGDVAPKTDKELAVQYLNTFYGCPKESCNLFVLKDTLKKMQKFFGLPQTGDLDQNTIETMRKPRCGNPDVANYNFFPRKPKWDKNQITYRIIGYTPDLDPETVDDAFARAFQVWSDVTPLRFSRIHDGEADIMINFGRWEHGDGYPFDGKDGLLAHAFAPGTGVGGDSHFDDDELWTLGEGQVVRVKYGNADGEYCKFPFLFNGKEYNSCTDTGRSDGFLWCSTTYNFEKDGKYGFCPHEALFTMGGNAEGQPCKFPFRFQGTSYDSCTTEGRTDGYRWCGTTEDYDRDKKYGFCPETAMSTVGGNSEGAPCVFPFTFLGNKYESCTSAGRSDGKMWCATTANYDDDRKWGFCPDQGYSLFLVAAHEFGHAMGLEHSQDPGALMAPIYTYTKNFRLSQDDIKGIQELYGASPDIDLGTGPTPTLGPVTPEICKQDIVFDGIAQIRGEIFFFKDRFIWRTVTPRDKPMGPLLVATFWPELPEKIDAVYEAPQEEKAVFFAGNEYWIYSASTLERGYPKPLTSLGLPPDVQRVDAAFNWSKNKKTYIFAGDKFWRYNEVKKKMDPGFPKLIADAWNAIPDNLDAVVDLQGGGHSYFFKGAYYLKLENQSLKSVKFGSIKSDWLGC

[9] = Luminescence-based cell-based high throughput dose response assay to identify activators of the DAF-12 from the parasite S. stercoralis (ssDAF-12).; assay type: functional
Prothrombin = Prothrombin (Bos taurus, UniProt P00735); experiment: thrombin inhibition, dose response, biochemical, fluorescence polarization, uHTS hits (AID 602369); assay type: functional

SMILES | EC50 (HEK293 [1]) | IC50 (HEK293 [2]) | EC50 (Insulin-degrading enzyme [3]) | IC50 (Coagulation factor XII) | EC50 (Insulin-degrading enzyme [4]) | EC50 [5] | EC50 [6] | IC50 [7] | IC50 [8] | IC50 [9] | IC50 (Prothrombin)
COc1ccc(C(=O)N/N=C/c2cc3ccccc3nc2O)cc1 | > 55.9 µM (inactive) | > 89.1 µM (inactive) | > 54.7 µM (inactive) | > 50 µM (inactive) | > 54.7 µM (inactive) |  |  |  |  |  | 
O=C(CSc1nc2cc(Cl)ccc2s1)c1cc2ccccc2o1 |  |  |  |  |  | 0.35 µM (active) | > 67.5 µM (inactive) | 24.5 µM (active) | 18.8 µM (active) | > 67.5 µM (inactive) | 28.5 µM (active)
